Test results as given in PubChem BioAssay AID256 (DTP/NCI, 2004).
Values joined by “and” are separate entries in the source; they are usually repeats but may differ in a detail not shown here. Equal values may be shown once. Toxic doses and inconclusive results are not listed. Rule for the calls: active = survival T/C of 150% or more; inactive = T/C below 125% in these data.

System: CD2F1 mice, L1210 leukemia ip, survival T/C
Test: NCI In Vivo Anticancer Drug Screen. Data for tumor model L1210 Leukemia (intraperitoneal) in CD2F1 (CDF1) mice
Details: endpoint: mean survival time, higher = longer survival
Method: The antitumor activity of compounds was measured in mice bearing transplantable tumors. Survival or tumor size were measured and the results are expressed as the measurement made in the treated group (T) divided by the measurement made in the vehicle treated control group (C). The tumor model used in this assay is L1210 Leukemia (intraperitoneal) in CD2F1 (CDF1) mice

[1] = dose: 100.0 mg/kg/injection, schedule: Q04DX003 (ip), vehicle: saline with Tween-80
[2] = dose: 200.0 mg/kg/injection, schedule: Q04DX003 (ip), vehicle: saline with Tween-80
[3] = dose: 400.0 mg/kg/injection, schedule: Q04DX003 (ip), vehicle: saline with Tween-80
[4] = dose: 25.0 mg/kg/injection, schedule: Q04DX002 (ip), vehicle: saline with Tween-80
[5] = dose: 50.0 mg/kg/injection, schedule: Q04DX002 (ip), vehicle: saline with Tween-80
[6] = dose: 100.0 mg/kg/injection, schedule: Q04DX002 (ip), vehicle: saline with Tween-80
[7] = dose: 200.0 mg/kg/injection, schedule: Q04DX002 (ip), vehicle: saline with Tween-80
[8] = dose: 50.0 mg/kg/injection, schedule: Q01DX009 (ip), vehicle: saline with Tween-80
[9] = dose: 100.0 mg/kg/injection, schedule: Q01DX009 (ip), vehicle: saline with Tween-80
[10] = dose: 25.0 mg/kg/injection, schedule: Q04DX003 (ip), vehicle: saline
[11] = dose: 100.0 mg/kg/injection, schedule: Q01DX001 (ip), vehicle: saline with Tween-80
[12] = dose: 200.0 mg/kg/injection, schedule: Q01DX001 (ip), vehicle: saline with Tween-80
[13] = dose: 200.0 mg/kg/injection, schedule: Q01DX009 (ip), vehicle: saline with Tween-80
[14] = dose: 400.0 mg/kg/injection, schedule: Q01DX001 (ip), vehicle: saline with Tween-80
[15] = dose: 400.0 mg/kg/injection, schedule: Q01DX009 (ip), vehicle: saline with Tween-80
[16] = dose: 6.25 mg/kg/injection, schedule: Q04DX003 (ip), vehicle: saline
[17] = dose: 12.5 mg/kg/injection, schedule: Q04DX003 (ip), vehicle: saline

Measured: T/C

CCOC(=O)N/N=C/c1cc(Cl)ccc1O
inactive: dose: 50.0 mg/kg/injection, schedule: Q04DX003 (ip), vehicle: saline with Tween-80 98 % of control | [1] 93 % of control | [2] 91 % of control

CC1(c2ccccc2)NC(=O)NC1=O (stereo not drawn)
inactive: dose: 100.0 mg/kg/injection, schedule: Q01DX009 (ip), vehicle: other 98 % of control | [1] 94 % of control | dose: 200.0 mg/kg/injection, schedule: Q01DX009 (ip), vehicle: other 97 % of control | [2] 97 % of control | [3] 91 % of control

CC1(C)COC(=O)C(C)(C)C1=O
inactive: [4] 107 % of control | [5] 96 % of control | [6] 96 % of control

CCCCNCCCNCCCNC(=O)c1csc(-c2csc(CCNC(=O)C(NC(=O)C(C)C(O)C(C)NC(=O)C(NC(=O)c3nc(C(CC(N)=O)NCC(N)C(N)=O)nc(N)c3C)C(OC3OC(CO)C(O)C(O)C3OC3OC(CO)C(O)C(OC(N)=O)C3O)c3cnc[nH]3)C(C)O)n2)n1 (stereo not drawn)
inactive: dose: 2.5 mg/kg/injection, schedule: Q01DX009 (ip), vehicle: saline 101 % of control | dose: 5.0 mg/kg/injection, schedule: Q01DX009 (ip), vehicle: saline 101 % of control | dose: 10.0 mg/kg/injection, schedule: Q01DX009 (ip), vehicle: saline 114 % of control | dose: 20.0 mg/kg/injection, schedule: Q01DX009 (ip), vehicle: saline 104 % of control | dose: 40.0 mg/kg/injection, schedule: Q01DX009 (ip), vehicle: saline 104 % of control

CCC(=O)Nc1cc([N+](=O)[O-])cc([N+](=O)[O-])c1
inactive: [6] 105 % of control | [7] 100 % of control

CN(Cc1ccccc1)C(c1ccccc1)C(O)C(O)(c1ccccc1)c1ccccc1 (stereo not drawn)
inactive: dose: 100.0 mg/kg/injection, schedule: Q04DX003 (ip), vehicle: acetone 97 % of control | dose: 200.0 mg/kg/injection, schedule: Q04DX003 (ip), vehicle: acetone 97 % of control | dose: 400.0 mg/kg/injection, schedule: Q04DX003 (ip), vehicle: acetone 90 % of control

O=C(O)/C=C/C(=O)Nc1cccc2c1C(=O)c1ccccc1-2
inactive: dose: 25.0 mg/kg/injection, schedule: Q01DX009 (ip), vehicle: saline with Tween-80 97 % of control | [8] 94 % of control | [9] 102 % of control

O=C1CCCC2C1CCCC21OCCO1 (stereo not drawn)
inactive: [10] 93 % of control | dose: 50.0 mg/kg/injection, schedule: Q04DX003 (ip), vehicle: saline 100 % of control | dose: 100.0 mg/kg/injection, schedule: Q04DX003 (ip), vehicle: saline 102 % of control

CN(C)c1cc(C(C)(C)C)nc(C(C)(C)C)c1
inactive: dose: 12.5 mg/kg/injection, schedule: Q04DX002 (ip), vehicle: saline 111 % of control | [4] 98 % of control | dose: 25.0 mg/kg/injection, schedule: Q04DX002 (ip), vehicle: saline 118 % of control | [5] 95 % of control | dose: 50.0 mg/kg/injection, schedule: Q04DX002 (ip), vehicle: saline 100 % of control | [6] 95 % of control

O=C([O-])CC(=O)[O-].[NH-][C@@H]1CCCC[C@H]1[NH-].[Pt+4]
inactive: dose: 6.25 mg/kg/injection, schedule: Q04DX003 (ip), vehicle: saline with Tween-80 113 % of control

Nc1cccc(OCC(O)CN2CCN(c3ccccc3)CC2)c1 (stereo not drawn)
inactive: [5] 93 % of control | [6] 89 % of control and 94 % of control | [7] 112 % of control

CC(C)N1CCC1C(=O)O (stereo not drawn)
inactive: dose: 100.0 mg/kg/injection, schedule: Q01DX009 (ip), vehicle: saline sonified 97 % of control | dose: 200.0 mg/kg/injection, schedule: Q01DX009 (ip), vehicle: saline sonified 105 % of control | dose: 400.0 mg/kg/injection, schedule: Q01DX009 (ip), vehicle: saline sonified 97 % of control

O=S1C2C3CC(C4C=CCC43)C2N1c1ccccc1 (stereo not drawn)
inactive: [11] 92 % of control | [9] 97 % of control | [12] 95 % of control | [13] 97 % of control | [14] 90 % of control | [15] 94 % of control

CC12CCC(O1)C1C(=O)NC(=O)C12 (stereo not drawn)
inactive: [1] 94 % of control | [2] 89 % of control | [3] 98 % of control

CC(C)(C)NC(=O)C1C2CCC(C2)C1C(=O)NC(C)(C)C (stereo not drawn)
inactive: [1] 98 % of control | [2] 102 % of control | [3] 98 % of control

C[N+]1(C)CC2CCCCC1C2=O (stereo not drawn)
inactive: dose: 75.0 mg/kg/injection, schedule: Q01DX001 (ip), vehicle: saline 111 % of control | dose: 150.0 mg/kg/injection, schedule: Q01DX001 (ip), vehicle: saline 101 % of control | dose: 300.0 mg/kg/injection, schedule: Q01DX001 (ip), vehicle: saline 98 % of control

c1ccc(-c2cc(-c3ccccc3)[o+]c(-c3ccccc3)c2)cc1
inactive: dose: 3.13 mg/kg/injection, schedule: Q01DX009 (ip), vehicle: saline with Tween-80 100 % of control | dose: 3.13 mg/kg/injection, schedule: Q04DX003 (ip), vehicle: saline 101 % of control | dose: 6.25 mg/kg/injection, schedule: Q01DX009 (ip), vehicle: saline with Tween-80 100 % of control | [16] 98 % of control | dose: 12.5 mg/kg/injection, schedule: Q01DX009 (ip), vehicle: saline with Tween-80 97 % of control | [17] 104 % of control | [1] 95 % of control

OCC1OC(Nc2ncnc3nc[nH]c23)C(O)C1O (stereo not drawn)
inactive: [11] 108 % of control | [9] 96 % of control | [12] 94 % of control | [13] 108 % of control | [14] 92 % of control | [15] 100 % of control

C1CN(CC2COC(CN3CCOCC3)CO2)CCO1 (stereo not drawn)
inactive: dose: 100.0 mg/kg/injection, schedule: Q01DX009 (ip), vehicle: saline 102 % of control | dose: 200.0 mg/kg/injection, schedule: Q01DX009 (ip), vehicle: saline 102 % of control | dose: 400.0 mg/kg/injection, schedule: Q01DX009 (ip), vehicle: saline 104 % of control

O=C(O)C1Cc2c([nH]c3ccccc23)C2CC(C3CC4c5[nH]c6ccccc6c5CC(C(=O)O)N4C3=O)C(=O)N12 (stereo not drawn)
inactive: [6] 97 % of control | [7] 93 % of control | dose: 400.0 mg/kg/injection, schedule: Q04DX002 (ip), vehicle: saline with Tween-80 89 % of control

Oc1c(Br)cc(Br)cc1C=Nc1ccc(Br)cc1
inactive: [1] 110 % of control | [2] 97 % of control | [3] 95 % of control

CC(=O)O.[Th]
inactive: dose: 100.0 mg/kg/injection, schedule: Q01DX001 (ip), vehicle: saline 92 % of control | dose: 400.0 mg/kg/injection, schedule: Q01DX001 (ip), vehicle: saline 92 % of control

N#C/C(=C\c1cccc(OCc2ccccc2)c1)c1ccc([N+](=O)[O-])cc1
inactive: [16] 98 % of control | [17] 98 % of control | [10] 102 % of control

CC(C)(CO)CN1CCCCC1
inactive: [1] 101 % of control | [2] 93 % of control

O=C(/C=C/C(=N\Nc1ccccc1)c1ccccc1)c1ccccc1
inactive: [11] 96 % of control | [12] 94 % of control | [14] 97 % of control

CCC(C)(O)c1ccccc1 (stereo not drawn)
inactive: [8] 103 % of control | [9] 100 % of control | [13] 95 % of control

OCCC1CC1=C1CC1 (stereo not drawn)
inactive: dose: 100.0 mg/kg/injection, schedule: Q04DX003 (ip), vehicle: Klucel (hydroxypropylcellulose) (HPC) 101 % of control | dose: 200.0 mg/kg/injection, schedule: Q04DX003 (ip), vehicle: Klucel (hydroxypropylcellulose) (HPC) 101 % of control

CCOC(=O)C(C(C)=O)C(C(C)=O)C(=O)OCC (stereo not drawn)
inactive: dose: 75.0 mg/kg/injection, schedule: Q01DX009 (ip), vehicle: saline with Tween-80 97 % of control | [1] 98 % of control | dose: 150.0 mg/kg/injection, schedule: Q01DX009 (ip), vehicle: saline with Tween-80 97 % of control | [2] 95 % of control | dose: 300.0 mg/kg/injection, schedule: Q01DX009 (ip), vehicle: saline with Tween-80 97 % of control | [3] 106 % of control
